# Data as given in ChEMBL document CHEMBL1127540, “Three-dimensional pharmacophores from binding data” (J Med Chem, 1994).
# pKi: −log10 of the molar value. Starred links: 1 amine or outer side, 2 acyl side, 3 side chain; linkers in the order of their positions; H or OH if unused. Non-standard residues stand in square brackets, D forms with d. Residues, ends and D or L forms follow the SMILES beside them. *: point of attachment. Hexanoyl(5S-NH,4S-OH,6-Ph) = O=C(CC[C@H](O)[C@H](Cc1ccccc1)N[*:1])[*:2]; X3 = O=C([C@@H]1CCC[C@@H]1[C@H](O)[C@H](Cc1ccccc1)N[*:1])[*:2]; PheΨ(PO2HCH2)Gly = O=C(CCP(=O)(O)[C@H](Cc1ccccc1)N[*:1])[*:2]; X5 = O=C([C@H]1CCCN1C[C@H](O)[C@H](Cc1ccccc1)N[*:1])[*:2]; Ahppa(3S,4S) = O=C(C[C@H](O)[C@H](Cc1ccccc1)N[*:1])[*:2]; X2 = CC(C)C[C@H](N[*:1])[C@@H](O)CN1CCC[C@@H]1C(=O)[*:2]; X10 = O=C([C@H]1CCCN1C[C@H](Cc1ccc(O)cc1)N[*:1])[*:2]; X1 = O=C(C[C@H](O)[C@H](Cc1ccc(O)cc1)N[*:1])[*:2]; X4 = O=C([C@H](Cc1ccccc1)N[*:1])C(F)(F)C(=O)[*:2]; X8 = O=C([C@H]1CCCN1C[C@H](Cc1ccccc1)N[*:1])[*:2]; X6 = O=C(CC[C@@H](O)[C@H](Cc1ccccc1)N[*:1])[*:2]; X9 = O=C(CP(=O)(O)[C@H](Cc1ccccc1)N[*:1])[*:2]; X7 = NC(=O)C[C@H](N[*:1])[C@@H](O)CC(=O)[*:2]; Sta = CC(C)C[C@H](N)[C@@H](O)CC(=O)O; Cbz = O=C(OCc1ccccc1)*; Boc = CC(C)(C)OC(=O)*; Lac = C[C@H](O)C(=O)O
# Molecular target: Human immunodeficiency virus type 1 protease (Human immunodeficiency virus 1, UniProt Q72874)
# Experiment: Binding affinity to HIV-1 protease
row,SMILES,pKi
1,CC[C@H](C)[C@H](NC(=O)[C@H](C(C)C)[C@@H](O)[C@H](O)[C@H](CC(C)C)NC(=O)[C@H](Cc1c[nH]cn1)NC(=O)[C@H](Cc1ccccc1)NC(=O)OC(C)(C)C)C(=O)NCc1ccccn1,7.55
2,CC(C)(C)OC(=O)N[C@@H](Cc1ccccc1)[C@H](O)C(=O)N[C@@H](CCC(=O)O)C(=O)N[C@@H](Cc1ccccc1)C(=O)O,5.48
3,CC[C@H](C)[C@H](NC(=O)[C@H]1CCCN1C(=O)[C@H](CO)NC(=O)[C@@H](NC(=O)[C@@H]1CCCN1C(=O)[C@H](Cc1ccccc1)NC(=O)[C@H](CC(N)=O)NC(=O)[C@H](CC(C)C)NC(=O)[C@@H](NC(=O)[C@@H](N)CS)[C@@H](C)O)[C@@H](C)CC)C(=O)O,7.15
4,CC(C)[C@H](NC(=O)OCc1ccccn1)C(=O)N[C@@H](Cc1ccccc1)C(=O)C(F)(F)CCc1ccccc1,8.66
5,CC(=O)N[C@@H](CO)C(=O)N[C@@H](C)C(=O)N[C@@H](C)C(=O)N[C@@H](Cc1ccccc1)CN1CCC[C@@H]1C(=O)N[C@H](C(=O)N[C@H](C(N)=O)C(C)C)C(C)C (Ac-SAA[X8]VV-NH2),4.42
6,CC[C@H](C)[C@H](NC(=O)[C@H]1CCCN1C[C@H](O)[C@H](CC(C)C)NC(=O)[C@H](CC(N)=O)NC(=O)[C@H](CC(C)C)NC(=O)[C@H](CO)NC(C)=O)C(=O)OC (Ac-SLN[X2]I-OMe),6.01
7,CC[C@H](C)[C@H](NC(=O)[C@H]1CCCN1C[C@H](O)[C@H](CC(C)C)NC(=O)[C@H](CC(N)=O)NC(=O)[C@H](CC(C)C)NC(=O)[C@H](CO)NC(C)=O)C(=O)N[C@H](C(=O)OC)C(C)C (Ac-SLN[X2]IV-OMe),7.96
8,"COC(=O)[C@@H](NC(=O)[C@@H](NC(=O)C[C@H](O)[C@H](Cc1ccccc1)NC(=O)[C@H](C)NC(=O)[C@H](C)NC(=O)[C@H](CO)NC(=O)OC(C)(C)C)C(C)C)C(C)C (Boc-SAA[Ahppa(3S,4S)]VV-OMe)",5.92
9,COC(=O)[C@@H](NC(=O)[C@@H](NC(=O)C[C@H](O)[C@H](Cc1ccc(O)cc1)NC(=O)[C@H](C)NC(=O)[C@H](C)NC(=O)[C@H](CO)NC(=O)OC(C)(C)C)C(C)C)C(C)C (Boc-SAA[X1]VV-OMe),6.74
10,COC(=O)[C@@H](NC(=O)[C@@H](NC(=O)C(F)(F)C(=O)[C@H](Cc1ccccc1)NC(=O)[C@H](C)NC(=O)[C@H](C)NC(=O)[C@H](CO)NC(=O)OC(C)(C)C)C(C)C)C(C)C (Boc-SAA[X4]VV-OMe),6.80
11,"COC(=O)[C@@H](NC(=O)[C@@H](NC(=O)CC[C@H](O)[C@H](Cc1ccccc1)NC(=O)[C@H](Cc1ccccc1)NC(=O)[C@H](C)NC(=O)[C@H](C)NC(=O)OCc1ccccc1)C(C)C)C(C)C (Cbz-AAF[Hexanoyl(5S-NH,4S-OH,6-Ph)]VV-OMe)",7.32
12,"COC(=O)[C@@H](NC(=O)[C@@H](NC(=O)CC[C@H](O)[C@H](Cc1ccccc1)NC(=O)[C@H](C)NC(=O)[C@H](C)NC(=O)[C@@H](N)CO)C(C)C)C(C)C (H-SAA[Hexanoyl(5S-NH,4S-OH,6-Ph)]VV-OMe)",7.21
13,COC(=O)[C@@H](NC(=O)[C@@H](NC(=O)CCP(=O)(O)[C@H](Cc1ccccc1)NC(=O)[C@H](C)NC(=O)[C@H](C)NC(=O)[C@@H](N)CO)C(C)C)C(C)C (H-SAA[PheΨ(PO2HCH2)Gly]VV-OMe),5.36
14,COC(=O)[C@@H](NC(=O)[C@@H](NC(=O)C[C@H](O)[C@H](Cc1ccc(O)cc1)NC(=O)[C@H](C)NC(=O)[C@H](C)NC(=O)[C@@H](N)CO)C(C)C)C(C)C (H-SAA[X1]VV-OMe),7.10
15,COC(=O)[C@@H](NC(=O)[C@@H](NC(=O)[C@@H]1CCC[C@@H]1[C@H](O)[C@H](Cc1ccccc1)NC(=O)[C@H](C)NC(=O)[C@H](C)NC(=O)[C@@H](N)CO)C(C)C)C(C)C (H-SAA[X3]VV-OMe),6.30
16,COC(=O)[C@@H](NC(=O)[C@@H](NC(=O)CC[C@@H](O)[C@H](Cc1ccccc1)NC(=O)[C@H](C)NC(=O)[C@H](C)NC(=O)[C@@H](N)CO)C(C)C)C(C)C (H-SAA[X6]VV-OMe),5.31
17,COC(=O)[C@@H](NC(=O)[C@@H](NC(=O)CP(=O)(O)[C@H](Cc1ccccc1)NC(=O)[C@H](C)NC(=O)[C@H](C)NC(=O)[C@@H](N)CO)C(C)C)C(C)C (H-SAA[X9]VV-OMe),5.35
18,CC(C)[C@H](NC(=O)OCc1ccccc1)C(=O)N[C@@H](Cc1ccccc1)C(=O)C(F)(F)CCc1ccccc1 (stereo in doubt; 12),8.57
19,CC(=O)N[C@@H](CO)C(=O)N[C@@H](CCC(N)=O)C(=O)N[C@@H](CC(N)=O)C(=O)N[C@@H](Cc1ccccc1)CN1CCC[C@@H]1C(=O)N[C@H](C(=O)N[C@H](C(N)=O)C(C)C)C(C)C (stereo in doubt; 71),4.85
20,CC(C)(C)OC(=O)N[C@@H](Cc1ccccc1)[C@@H](O)C(=O)N[C@@H](CCC(=O)O)C(=O)N[C@@H](Cc1ccccc1)C(=O)O (stereo in doubt; 72),4.77
21,CC(C)(C)OC(=O)N[C@@H](Cc1ccccc1)[C@@H](O)C(=O)N[C@@H](CCC(=O)O)C(=O)N[C@@H](Cc1ccccc1)C(=O)O (stereo in doubt; 76),4.62

# The remaining compounds from weak to strong by pKi, led by results:
row,pKi,SMILES
1,4.72,CC(C)C[C@H](NC(=O)[C@H](C)NC(=O)C[C@H](O)[C@H](CC(C)C)NC(=O)[C@@H](NC(=O)[C@@H](NC(=O)[C@H](C)O)C(C)C)C(C)C)[C@@H](O)CC(=O)O (H-[Lac]VV[Sta]A[Sta]-OH)
2,4.74,"CC(C)[C@H](NC(=O)[C@@H](NC(=O)C1CCCN1C[C@H](Cc1ccccc1)NC(=O)[C@H](C)NC(=O)[C@H](C)NC(=O)[C@@H](N)CO)C(C)C)C(N)=O (single isomer, unassigned)"
3,4.89,CC(=O)N[C@@H](CO)C(=O)N[C@@H](CCC(N)=O)C(=O)N[C@@H](CC(N)=O)C(=O)N[C@@H](Cc1ccc(O)cc1)CN1CCC[C@@H]1C(=O)N[C@H](C(=O)N[C@H](C(N)=O)C(C)C)C(C)C (Ac-SQN[X10]VV-NH2)
4,4.89,CC(=O)N[C@@H](CO)C(=O)N[C@@H](CCC(N)=O)C(=O)N[C@@H](CC(N)=O)C(=O)N[C@@H](Cc1ccccc1)CN1CCC[C@@H]1C(=O)N[C@H](C(=O)N[C@H](C(N)=O)C(C)C)C(C)C (stereo in doubt; 70)
5,5.15,CC(C)(C)OC(=O)N[C@H](Cc1ccccc1)[C@@H](O)CC(=O)N[C@@H](CCC(=O)O)C(=O)N[C@@H](Cc1ccccc1)C(=O)O
6,5.43,CC[C@H](C)[C@H](NC(=O)C[C@H](O)[C@H](CC(N)=O)NC(=O)[C@H](CCC(N)=O)NC(=O)[C@H](CO)NC(=O)[C@@H](N)C(C)C)C(=O)N[C@H](C(=O)O)C(C)C (H-VSQ[X7]IV-OH)
7,6.09,"COC(=O)[C@@H](NC(=O)[C@@H](NC(=O)C[C@H](O)[C@H](Cc1ccccc1)NC(=O)[C@H](C)NC(=O)[C@H](C)NC(=O)[C@@H](N)CO)C(C)C)C(C)C (H-SAA[Ahppa(3S,4S)]VV-OMe)"
8,6.38,CC[C@H](C)[C@H](NC(=O)[C@H]1CCCN1C[C@H](O)[C@H](Cc1ccccc1)NC(=O)[C@H](CC(N)=O)NC(=O)[C@H](CC(C)C)NC(=O)[C@H](CO)NC(C)=O)C(=O)OC (Ac-SLN[X5]I-OMe)
9,6.55,CC(C)(C)OC(=O)N[C@@H](Cc1ccccc1)[C@H](O)[C@@H](O)[C@H](Cc1ccccc1)NC(=O)OC(C)(C)C
10,7.40,CC(C)(C)OC(=O)N[C@@H](Cc1ccccc1)[C@@H](O)[C@H](O)[C@H](Cc1ccccc1)NC(=O)OC(C)(C)C
11,7.68,CC[C@H](C)[C@H](NC(=O)[C@H]1CCCN1C[C@H](O)[C@H](CC(C)C)NC(=O)[C@H](CC(N)=O)NC(=O)[C@H](CC(C)C)NC(C)=O)C(=O)N[C@H](C(=O)OC)C(C)C (Ac-LN[X2]IV-OMe)
12,7.74,"COC(=O)[C@@H](NC(=O)[C@@H](NC(=O)CC[C@H](O)[C@H](Cc1ccccc1)NC(=O)[C@H](C)NC(=O)[C@H](C)N)C(C)C)C(C)C (H-AA[Hexanoyl(5S-NH,4S-OH,6-Ph)]VV-OMe)"
13,7.77,CC(C)CC(=O)N[C@H](C(=O)N[C@H](C(=O)N[C@@H](CC(C)C)[C@@H](O)CC(=O)N[C@@H](C)C(=O)N[C@@H](CC(C)C)[C@@H](O)CC(=O)O)C(C)C)C(C)C [PEPSTATIN]
14,7.92,CC(C)(C)OC(=O)N[C@@H](Cc1ccccc1)[C@H](O)[C@H](O)[C@H](Cc1ccccc1)NC(=O)OC(C)(C)C
15,7.92,CC(=O)N[C@H](C(=O)C[C@@H](Cc1ccccc1)[C@H](O)[C@H](Cc1ccccc1)NC(=O)[C@@H](NC(C)=O)C(C)C)C(C)C
16,8.30,CC(C)[C@H](NC(=O)OCc1ccccc1)C(=O)N[C@@H](Cc1ccccc1)C(=O)C(F)(F)CCc1ccccc1 (stereo in doubt; 17)
17,8.85,CC(C)[C@H](NC(=O)OCc1ccccc1)C(=O)N[C@@H](Cc1ccccc1)C(=O)C(F)(F)CCc1ccccn1
18,9.62,CC[C@H](C)[C@H](NC(=O)[C@H]1CCCN1C[C@H](O)[C@H](Cc1ccccc1)NC(=O)[C@H](CC(N)=O)NC(=O)[C@H](CC(C)C)NC(=O)[C@H](CO)NC(C)=O)C(=O)N[C@H](C(=O)OC)C(C)C (Ac-SLN[X5]IV-OMe)
